From paper PMC12434521, “Characterization of Next-Generation Inhibitors for the Inward-Rectifier Potassium Channel Kir2.1: Discovery of VU6080824” (ACS Medicinal Chemistry Letters, 2025)
Where “and” joins values, the source holds several entries; their conditions need not be identical. Equal entries are not always repeated.

How the values were obtained:
human Kir2.1 [1] = target: T1, human Kir2.1 (Homo sapiens, UniProt P63252); assay: Kir2.1 thallium flux assay; assay type: cell-based; settings: for Emax / Thallium Flux Efficacy (% Inhibition): efficacy from 4PL fit, relative to ML133; for Emax: read-out: Thallium Flux Efficacy (% Inhibition)
T1 construct: expressed in transfected cells
T1 sequence (P63252 1-427): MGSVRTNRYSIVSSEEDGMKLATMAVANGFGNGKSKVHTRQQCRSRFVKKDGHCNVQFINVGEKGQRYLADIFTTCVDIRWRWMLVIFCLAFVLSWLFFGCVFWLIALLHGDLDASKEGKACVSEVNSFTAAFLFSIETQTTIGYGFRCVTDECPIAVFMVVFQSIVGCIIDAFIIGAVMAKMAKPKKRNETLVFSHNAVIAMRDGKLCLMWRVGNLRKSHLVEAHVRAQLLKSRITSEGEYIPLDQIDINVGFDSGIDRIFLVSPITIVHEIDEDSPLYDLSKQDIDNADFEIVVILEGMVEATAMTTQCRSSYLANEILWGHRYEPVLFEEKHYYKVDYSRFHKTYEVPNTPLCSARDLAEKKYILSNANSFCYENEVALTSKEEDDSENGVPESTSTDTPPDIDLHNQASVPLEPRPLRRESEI
Procedure: Thallium Flux Assay Experimental Conditions
The Tl+ flux assays were conducted as previously described with modifications optimized for Kir2.1 cell line as described below.1
Briefly, stable T-REx-HEK-293 cells expressing human K ir2.1 were cultured in DMEM growth medium (Catalog #11965-092, Gibco, Billings, MT) containing 10% heat-inactivated FBS (Catalog #16140, Gibco), 100 U/mL PenStrep, 5 μg/mL Blasticidin S, and 250 μg/mL Hygromycin.
The day prior to the experiment, cells at ~90% confluency were resuspended in plating media, which consisted of the same components as the growth media, except that heat-inactivated FBS was replaced with dialyzed FBS (Catalog #26400, Gibco). Tetracycline was added to the plating media to achieve a final concentration of 1 μg/ml to induce hKir2.1 expression. Cells were then counted and plated at 15,000 cells/well in black-walled, amine- or PDL- coated, 384-well plates at 20 μl/well (Corning, Corning, NY). On the day of experiment, the media was removed from the cell plate and replaced with 20 μl/well of Tl+-sensitive dye loading solution containing 2.5 μg/ml Thallos-AM (Catalog #11000-050, ION Biosciences, San Marcos, TX) in assay buffer using a Multidrop Combi dispenser (Thermo Fisher Scientific, Walkham, MA). Cell plates loaded with dye solution were incubated for 1 hour at room temperature. Following incubation, the cell plate was washed with HBSS assay buffer containing 20 mM HEPES using a BioTek ELx 405 TS plate washer (Agilent, Santa Clara, CA), leaving 20 μl of assay buffer in each well. The cell plate was then transferred to a Panoptic kinetic imaging plate reader (WaveFront Biosciences, Franklin, TN) for imaging at 1 Hz, 482/35 nm excitation and 536/40 nm emission for 10 seconds. Following this, 20 μl/well of HBSS assay buffer containing test compounds at 2-fold over their final concentrations were added and imaging continued for another eight minutes, after which 10 μl/well of chloride-free Tl+ stimulus solution was added (Catalog #11000-050, ION Biosciences). The final Tl2SO4 concentration in cell plate post-Tl+ stimulus solution addition was 0.25 mM. Images were collected for an additional two minutes. A ten-point concentration series from 30 μM to 2 nM with a 1:3 dilution factor was generated using an Echo liquid handler 650 (Labcyte, San Jose, CA). Final DMSO concentration, 0.3% (v/v) in the assay was constant across all compound concentrations.
The initial slopes of the Tl+-induced fluorescence changes were fit to a four-parameter logistic equation using our in-house software Waveguide to determine potency and efficacy values. […]
Bauer, J. A.; Days, E. L.; Lindsley, C. […]

human Kir2.1 [2] = target: T1, human Kir2.1; assay: Kir2.1 manual patch clamp (MPC) assay; assay type: cell-based; settings: for Emax / Manual patch clamp Emax: % inhibition of Ba2+-sensitive current at highest tested concentration (3–30 μM); for IC50: pH 7.4, -120 mV, normalized to 2 mM Ba2+ block, top concentration 10 μM (ML133 30 μM, 5t 3 μM)
Procedure: Manual Patch Claim Assay Experimental Conditions
Whole-cell patch-clamp electrophysiology was used to record K ir2.1 currents from a stably transfected monoclonal T-Rex-HEK-293 cell line with a tetracycline-inducible promoter expressing human Kir2.1, as described previously1 cultured in a 5% CO2 incubator at 37°C. Kir2.1 expression was induced by overnight treatment with 1 µg/mL tetracycline. Cells were dissociated using 0.25% Trypsin-EDTA and seeded onto 12 mm circular coverslips (Electron Microscopy Sciences, PA, USA) for same-day whole-cell patch-clamp recordings. Kir2.1 currents were recorded at room temperature using an AxoPatch 200B amplifier with Clampex 10.7 software (Molecular Devices, USA). The voltage-clamp protocol consisted of a 1-s step to -120 mV from a -80 mV holding potential, followed by a 2-s ramp to +40 mV, repeated every 10 s. Data were sampled at 5 kHz and filtered at 1 kHz. Patch pipettes, pulled from 1.5 mm OD thin-walled capillaries (Warner Instruments, MA, USA) using a Sutter P-1000 puller (Sutter Instrument, CA, USA), had resistances of 2–3 MΩ when filled with intracellular solution containing (mM): 135 KCl, 10 HEPES, 1 EGTA, 2 MgCl2, 2 Na2ATP (pH 7.35, adjusted with KOH). The extracellular solution contained (mM): 135 NaCl, 5 KCl, 2 CaCl2, 1 MgCl2, 5 Glucose, 10 HEPES, 10 Sucrose (pH 7.35, adjusted with NaOH). After establishing stable baseline Kir2.1 currents, cells were perfused with compounds at concentrations of 0.03–30 µM until response saturation (within minutes).
Recordings concluded with a 2 mM Ba2+ solution to isolate Ba2+-sensitive currents, with compound responses expressed as fractions of this current. Current amplitudes at the -120 mV step were analyzed using Clampfit 11.2 (Molecular Devices). IC50 values were calculated by fitting the Hill equation to concentration-response curves (CRCs) using variable -slope nonlinear regression in GraphPad Prism 10.4 (GraphPad Software).
MPC experiments for Kir2.2 and Kir2.3 were conducted in an analogous fashion.1

[3] = T-REx-HEK-293 cells expressing human Kir2.1, 4PL fit, top concentration 30 μM, read-out: Thallium Flux Potency IC50

SMILES	IC50 (human Kir2.1 [1]; [3])	Emax (human Kir2.1 [1])	Emax (human Kir2.1 [2]; pH 7.4)	Fold more potent than ML133 in MPC (human Kir2.1 [2]; pH 7.4)	IC50 (human Kir2.1 [2])	MPC potency relative to ML133 (human Kir2.1 [2]; pH 7.4)	Thallium flux potency relative to ML133 (human Kir2.1 [1])	Thallium Flux Efficacy (% Inhibition) (human Kir2.1 [1])	Manual patch clamp Emax (human Kir2.1 [2]; pH 7.4)	IC50 (human Kir2.1 [1]; mean ± SEM over 9 experimental plates in triplicate, read-out: Thallium flux pIC50 (converted))
[2H]C([2H])([2H])Oc1ccc(CNCc2ccc(-c3cccc(OC)c3)cc2)cc1 [Compound 9]								100%	99%	
[2H]C([2H])([2H])Oc1ccc(CNCc2ccc(-c3cccc(OC([2H])([2H])[2H])c3)cc2)cc1 [Compound 13]								100%	99%	
[2H]C([2H])([2H])Oc1cccc(-c2ccc(CNCc3ccc(OC)cc3)cc2)c1 [Compound 11]								100%	99%	
[2H]C([2H])([2H])Oc1ccc(CNCc2cccc3ccccc23)cc1 [Compound 7]	11.1 µM	102%	82%		3.94 µM		equipotent			

Now from value to molecule:

IC50 (human Kir2.1 [1]; [3])	Emax (human Kir2.1 [1])	Emax (human Kir2.1 [2]; pH 7.4)	Fold more potent than ML133 in MPC (human Kir2.1 [2]; pH 7.4)	IC50 (human Kir2.1 [2])	MPC potency relative to ML133 (human Kir2.1 [2]; pH 7.4)	Thallium flux potency relative to ML133 (human Kir2.1 [1])	Thallium Flux Efficacy (% Inhibition) (human Kir2.1 [1])	Manual patch clamp Emax (human Kir2.1 [2]; pH 7.4)	IC50 (human Kir2.1 [1]; mean ± SEM over 9 experimental plates in triplicate, read-out: Thallium flux pIC50 (converted))	SMILES
4.9 µM	100%	98%	3–5 fold	0.48 µM						COc1ccc(CNCc2ccc(-c3cccc(C#N)c3)cc2)cc1 [Compound 5t]
8.2 µM	101%	99%		1.39 µM	equipotent					COc1ccc(CNCc2ccc(-c3ccccc3)cc2)cc1 [Compound 5k]
5.9 µM	101%	100%	3–5 fold	0.35 µM						COc1ccc(CNCc2ccc(-c3cccc(OC)c3)cc2)cc1 [Compound 5s, 1-(3′-Methoxy-[1,1’-biphenyl]-4-yl)-N-(4-methoxybenzyl)methanamine]
11.2 µM	99%	92%		3.03 µM		equipotent				COc1ccc(CNCc2ccc3c(c2)OC(F)(F)O3)cc1 [Compound 5h]
12.8 µM	106%	100%	3–5 fold	0.39 µM						COc1ccc(CNCc2cccc(-c3ccccc3)c2)cc1 [Compound 5j]
8.1 µM	99%	98%	3–5 fold	0.3 µM						COc1ccc(CNCc2ccc(-c3cccc(F)c3)cc2)cc1 [Compound 5p]
10.1 µM	101%	99%		1.5 µM and 1.51 µM					10.5 µM	COc1ccc(CNCc2cccc3ccccc23)cc1 [ML133, N-(4-methoxybenzyl)-1-(naphthalen-1-yl)methanamine, reference compound]
